Tests used:
Format in all cases: biochemical
CDK2/Cyclin A complex = CDK2/Cyclin A complex (Homo sapiens, UniProt P24941); assay: CDK2/Cyclin A assay; conditions: 1.0 μM; combinatorial library compounds
Summary of the method: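 Radiometric assay: 150 nM CDK2/cyclin A (insect-cell CDK2, truncated cyclin A) phosphorylates His-tagged Rb fragment (residues 386-928) with 25 μM ATP plus [32P]ATP, pH 7.4 HEPES, 2% DMSO, 30 °C for 20 min. Filter-captured product counted by phosphorimager; apparent Ki from competitive or tight-binding inhibition fits.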

FL-CHK1 = target: T1, FL-CHK1 (Homo sapiens, UniProt O14757); assay: CHK1 assay; conditions: 20 μM; combinatorial library compounds
T1 construct: C-terminally His-tagged full-length human CHK1 (FL-CHK1); 6xHis (C); made in house; host or cells: baculovirus/insect cells
T1 sequence (O14757 1-476): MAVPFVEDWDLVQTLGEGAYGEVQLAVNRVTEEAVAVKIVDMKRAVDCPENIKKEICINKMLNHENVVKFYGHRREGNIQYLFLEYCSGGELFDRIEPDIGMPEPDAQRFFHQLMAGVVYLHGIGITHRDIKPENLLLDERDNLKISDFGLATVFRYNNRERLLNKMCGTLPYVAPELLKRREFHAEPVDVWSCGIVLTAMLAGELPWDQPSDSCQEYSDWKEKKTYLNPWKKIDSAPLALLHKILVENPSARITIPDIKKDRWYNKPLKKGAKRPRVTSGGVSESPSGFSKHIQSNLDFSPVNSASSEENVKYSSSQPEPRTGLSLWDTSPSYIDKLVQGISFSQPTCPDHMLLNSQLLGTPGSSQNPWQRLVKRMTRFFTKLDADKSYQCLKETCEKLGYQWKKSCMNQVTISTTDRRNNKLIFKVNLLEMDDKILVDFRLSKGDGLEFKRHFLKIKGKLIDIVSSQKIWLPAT
Summary of the method: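 Full-length human CHK1 with C-terminal 6×His tag, made in baculovirus/insect cells, 10 nM, phosphorylating 0.125 mM Syntide-2 with 0.15 mM ATP in 50 mM Tris pH 7.5, 25 mM MgCl2, 400 mM NaCl. PK/LDH-coupled NADH oxidation read at 340 nm. Ki from initial rates over varied compound concentrations.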

CDK4/Cyclin D3 complex = target: T2, CDK4/Cyclin D3 complex (Homo sapiens, UniProt P11802); assay: CDK4/Cyclin D assay; conditions: 1.0 μM; combinatorial library compounds
T2 construct: made in house; host or cells: insect cells co-infected with baculovirus vectors
T2 sequence (P11802 whole entry): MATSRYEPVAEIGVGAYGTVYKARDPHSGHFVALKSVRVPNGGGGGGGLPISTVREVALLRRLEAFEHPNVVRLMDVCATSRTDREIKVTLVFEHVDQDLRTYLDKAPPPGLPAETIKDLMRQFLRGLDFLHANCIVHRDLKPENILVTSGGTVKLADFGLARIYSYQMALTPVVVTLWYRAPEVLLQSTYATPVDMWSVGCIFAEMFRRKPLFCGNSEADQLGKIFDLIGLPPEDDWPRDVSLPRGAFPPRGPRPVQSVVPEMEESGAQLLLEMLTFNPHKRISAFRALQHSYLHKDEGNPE
T2 sequence (P30281 whole entry partner): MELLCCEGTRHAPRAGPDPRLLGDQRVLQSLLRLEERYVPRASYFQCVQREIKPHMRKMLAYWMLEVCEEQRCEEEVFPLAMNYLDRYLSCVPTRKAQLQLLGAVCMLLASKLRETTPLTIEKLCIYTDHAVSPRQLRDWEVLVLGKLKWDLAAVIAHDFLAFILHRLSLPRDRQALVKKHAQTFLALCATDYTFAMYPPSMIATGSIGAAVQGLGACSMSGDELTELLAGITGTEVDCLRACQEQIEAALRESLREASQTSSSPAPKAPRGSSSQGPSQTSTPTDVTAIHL
Summary of the method: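 Insect-cell-expressed CDK4/cyclin D3 (50 nM) phosphorylating His-tagged Rb fragment (residues 386-928) with 25 μM [^32P]ATP in HEPES pH 7.4, MgCl2, 2% DMSO; 20 min at 30 °C, EDTA stop. Filter-captured 32P by phosphorimager; apparent Ki from competitive or tight-binding inhibition fits.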

[1] = target: T3, phosphorylated VEGF-R2Δ50 (FLVK-P) (Homo sapiens, UniProt P35968, DEL940-989/E990V); assay: VEGF-R2 coupled spectrophotometric (FLVK-P) assay; conditions: read-out: VEGF % inhibition at 20 μM, 20 μM; combinatorial library compounds
T3 construct: VEGF-R2Δ50 contains residues 806-939 and 990-1171; made in house; host or cells: baculovirus/insect cells
T3 sequence (P35968 with tags, fused parts or gaps DEL940-989/E990V limits assumed): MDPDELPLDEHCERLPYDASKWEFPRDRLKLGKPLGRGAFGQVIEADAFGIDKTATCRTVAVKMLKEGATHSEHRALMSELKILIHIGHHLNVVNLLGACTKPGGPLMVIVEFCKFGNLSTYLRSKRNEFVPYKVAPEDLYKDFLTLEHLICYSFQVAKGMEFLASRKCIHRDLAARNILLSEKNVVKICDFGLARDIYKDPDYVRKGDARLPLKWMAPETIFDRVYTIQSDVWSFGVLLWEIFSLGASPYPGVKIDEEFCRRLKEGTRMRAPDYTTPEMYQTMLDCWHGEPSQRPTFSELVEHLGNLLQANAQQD
Summary of the method: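 Baculovirus-expressed human VEGF-R2Δ50 (residues 806-939/990-1171, E990V) was autophosphorylated with 3 mM ATP, 40 mM MgCl2 for 2 h at 4° C. ADP formation was coupled via PK/LDH to NADH oxidation, read at 340 nm, with 5.1 mM poly(E4Y1), 1 mM ATP, 25 mM MgCl2, Hepes pH 7.5. Ki came from activity across compound concentrations.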

| SMILES | inhibition at 1 µM (CDK2/Cyclin A complex) [%] | inhibition at 20 µM (FL-CHK1) [%] | inhibition at 1 µM (CDK4/Cyclin D3 complex) [%] | inhibition at 20 µM [1] [%] |
| --- | --- | --- | --- | --- |
| CC(C)c1ccc(Nc2nc(N)c(-c3nc(-c4ccc[nH]4)cs3)s2)cc1 | 19 | 17.6 | 53.3 | 22 |
| CC(C)c1ccc(Nc2nc(N)c(-c3nc(-c4ccc(F)c(F)c4)cs3)s2)cc1 | 21.2 | 10.9 | 39.5 | 5 |
| CC(C)c1ccc(Nc2nc(N)c(-c3nc(-c4cccc([N+](=O)[O-])c4)cs3)s2)cc1 | 24.7 | 7.2 | 35.3 | -2 |
| CC(C)c1ccc(Nc2nc(N)c(-c3nc(-c4ccc(Cl)c(Cl)c4)cs3)s2)cc1 | 10.4 | 0.3 | -7.9 | -4 |
| CC(C)c1ccc(Nc2nc(N)c(-c3nc(-c4ccc(O)cc4)cs3)s2)cc1 | 10.5 | 25 | 77 | 49 |
| CC(C)c1ccc(Nc2nc(N)c(-c3nc(-c4ccc(CC(=O)O)s4)cs3)s2)cc1 | 21.8 | 13 | 61.8 | 33 |
| CC(C)c1ccc(Nc2nc(N)c(-c3nc(-c4ccc(F)cc4F)cs3)s2)cc1 | 30.6 | 19.7 | 91.5 | 46 |
| CC(C)c1ccc(Nc2nc(N)c(-c3nc(-c4cc(C(=O)C(Cl)(Cl)Cl)n(C)c4)cs3)s2)cc1 | 10.1 | 0.7 | 37.8 | -3 |

Next, values leading:

| inhibition at 1 µM (CDK2/Cyclin A complex) [%] | inhibition at 20 µM (FL-CHK1) [%] | inhibition at 1 µM (CDK4/Cyclin D3 complex) [%] | inhibition at 20 µM [1] [%] | SMILES |
| --- | --- | --- | --- | --- |
| 73 | 7.5 | 45.9 | -4 | CC(C)c1ccc(Nc2nc(N)c(-c3nc(-c4ccc(OC(=O)c5ccccc5)cc4)cs3)s2)cc1 |
| 14.1 | 5.1 | 74.6 | 45 | Cc1cc(-c2csc(-c3sc(Nc4ccc(C(C)C)cc4)nc3N)n2)cc(C)c1O |
| 12.5 | 19.3 | 72.7 | 30 | CC(C)c1ccc(Nc2nc(N)c(-c3nc(-c4c(Cl)c(Cl)nc(Cl)c4Cl)cs3)s2)cc1 |
| 23.3 | -2.5 | 50 | 14 | Cc1ccc(-c2csc(-c3sc(Nc4ccc(C(C)C)cc4)nc3N)n2)c(C)c1 |
| 21.7 | 8.8 | 48 | 5 | CC(C)c1ccc(Nc2nc(N)c(-c3nc(-c4cccc(OC(=O)c5ccccc5)c4)cs3)s2)cc1 |
| 31.8 | 38.9 | 72.8 | 51 | COc1cc(OC)c(-c2csc(-c3sc(Nc4ccc(C(C)C)cc4)nc3N)n2)c(O)c1Cl |
| -4.3 | 18.9 | 75.5 | 39 | CC(C)c1ccc(Nc2nc(N)c(-c3nc(-c4ccc5oc6ccccc6c5c4)cs3)s2)cc1 |
| 12.2 | -5.3 | 73 | 9 | CCN(CC)c1ccc(-c2csc(-c3sc(Nc4ccc(C(C)C)cc4)nc3N)n2)cc1 |
| 9.3 | -4.3 | 72 | 25 | CC(C)c1ccc(Nc2nc(N)c(-c3nc(-c4csc5ccccc45)cs3)s2)cc1 |
| 17 | 3.4 | 33.2 | -11 | CC(C)c1ccc(Nc2nc(N)c(-c3nc(-c4cc5cc(Cl)ccc5o4)cs3)s2)cc1 |
| 14.6 | 12 | 48.1 | 5 | CC(C)c1ccc(Nc2nc(N)c(-c3nc(-c4cccc(Br)c4)cs3)s2)cc1 |
